Assay results as given in patent US20260209135A1, “METHOD OF FORTIFYING FERTILIZER WITH LIPO-CHITOOLIGOSACCHARIDE (LCO)” (priority 2022, published 2026).

Assays:
Cabbage [1] = assay: Cabbage microplot trial, granular fertilizer fortified with LCO (Example 4); assay type: in vivo, Cabbage (Enza zaden variety)
Cabbage [2] = assay: Cabbage microplot trial, WSF fortified with LCO (Example 1); assay type: in vivo, Cabbage (Enza zaden variety); conditions: average, vs control (only WSF)
Method: Cabbage seedling (Enza zaden variety) were transplanted on 16 Oct. 2020 and the experiment was completed by end of December 2020. Experiment was conducted in 3*3 microplots in 9 replications for treatment and control, microplots were distributed in a completed random block experimental design. Treatment was imposed by fertigation at 3 times point with doses divided in to 22, 39 and 39% respectively (Table 6). Plants were grown by following the standard package of practices developed by the university of Agricultural Science Bangalore. [table] Treatment was in a complete random block design, with 9 replications per treatment. Following parameter/observation was recorded: • 1. Plant number per plot • 2. Fruit weight per plot • 3. Fruit weight per plant • 4. Vertical circumference • 5. Radial circumference Data were analysed with JMP software by comparing means using all pairs Tukey HSD. Error bars shown in graphs are SD. Bar graphs represent the mean. Different alphabet indicates significant difference between the treatment.

Cabbage [3] = assay: Cabbage field study, bulk granular fertilizer with LCO (Example 7); assay type: in vivo; conditions: bulk fertilizer combined with LCO compared to fertilizer alone
Method: The field experiment was conducted at an agricultural farm in Bangalore in Rabi season of 2020. The study was conducted in randomized complete block design with 7 treatments and 7 replications per treatment with each plot measuring approximately 9 m^2 in area (Table-12 & 13). Cabbage seedlings of a popular variety was used for the trial. Different grades of bulk fertilizers were available in market generally sold in 50 kg packages. The N:P:K-19:19:19 grade bulk fertilizer was used for the current study. Treatments of LCO fortified bulk fertilizer with 3 doses of LCO 11.25 ml, 22.5 ml, and 33.75 ml were formulated per 50 kg bag of fertilizer. The application dose was calculated based on the crop and standard fertilizer recommendation to the select crop. About 50% of calculated quantity of fertilizers were applied to the crop on a per plot basis as basal application at the time of planting and rest of the quantity of each treatment was applied at 40 days after transplanting (DAT). [table] […] The yield per plot was measured by weighing all the heads harvested from each plot. The vertical and horizontal diameter of the head was measured using a measuring tape and the volume of each cabbage head was calculated by the following formula V=4/3·π·(a)^2·b • Where, • V=Volume of the head • a=Horizontal diameter of the head • b=Vertical diameter of the head

Capsicum = Capsicum net house trial, WSF fortified with LCO (Example 2); assay type: in vivo, Capsicum (Diana variety); conditions: fortification of WSF with LCO vs WSF only
Corn [4] = assay: Corn microplot trial, granular fertilizer fortified with LCO (Example 5); assay type: in vivo, Maize; conditions: LCO at 22.5 ml per bag of GF, over control
Method: Maize seeds were sown directly to microplot on 29 Oct. 2020 and the experiment was completed by third week of January 2021. Experiment was conducted in 3*3 microplots in 7 replications for treatment and 6 replications for control, microplots were distributed in a completed random block experimental design. Treatment was imposed by fertigation at 2 times point with doses divided in to 50% each first at time of transplanting and second one at 40 days after transplanting (Table 11). Plants were grown by following the standard package of practices developed by the university of Agricultural Science Bangalore, for further details information have a look at the crop calendar (Table 11). [table] Treatment was in a complete random block design, with 7 replications per treatment and 6 replication per control. Following parameter/observation WAS recorded: • 1. Plant number per plot • 2. Plant height • 3. Chlorophyll content • 4. Stem girth • 5. Cob number • 6. Cob dry weight • 7. Yield/grain weight per plot or plant Data were analysed with JMP software by comparing means using all pairs Tukey HSD. Error bars shown in graphs are SD. Bar graphs represent the mean. Different alphabet indicates significant difference between the treatment. […] FIG. 8: Plant height were measured at three different time point viz 33, 53 and 138 days after sowing, data represented here are means and error bar represent standard deviation. NS denotes no significant difference between the treatment.

Rice (Oryza sativa) = assay: Rice seedlings treated with LCO: root length; assay type: in vivo; conditions: vs control seedlings without LCO, FIG. 29
Description: (§1) FIG. 29 represents a graph showing root length measured @ 4 DAS in ragi and rice seedlings: untreated control and treated with LCO.

[5] = tested on: White French Beans seedlings; assay: Seedling bioassay in tubes, WSF (19:19:19) fortified with LCO (Example 3); assay type: in vivo; conditions: 10 days
Method: [table] Locally available beans variety were used for the study. Experiment was conducted in 50 ml falcon tube filled with soilrite which acts as growing substrate. Treatment solution as given in the table were prepared in demineralised water and 10 ml of respective solution were applied to each tube after sowing (2.5 cm depth). Fortified, unfortified WSF and LCO were tested at 2 doses along with absolute control. Subsequently, the seedlings were maintained under […] (200 […], 12 hrs light and dark), ambient temperature of 25 degree Celsius. The tubes were incubated for 10 days and irrigated with water as and when required. After 10 days, the experiment was terminated and the plants were phenotyped for recording the traits vz Hypocotyl length, epicotyl length, shoot length and root length.

Corn [6] = assay: Corn field study, bulk granular fertilizer with LCO (Example 8); assay type: in vivo; conditions: bulk fertilizer combined with LCO compared to fertilizer alone
Method: The field experiment was conducted at an agricultural farm in Bangalore in Rabi season of 2020. The study was conducted as randomized complete block design with 7 treatments with 9 replications and each plot measured about 9 m^2 in area. Hybrid corn seeds of a popular brand was used for the trial. Different grades of Bulk fertilizers are available in market generally sold in 50 kg packages. The N:P:K-19:19:19 grade bulk fertilizer was used for the current study. Bulk fertilizer was combined with 3 doses of LCO at the rate of 11.25 ml, 22.5 ml, and 33.75 ml per 50 kg bag of fertilizer. The application dose was calculated based on the crop and standard fertilizer recommendation to the select crop. About 50% quantity of the treatments were applied to the crop as basal application at the time of planting and rest of the quantity for each treatment was applied at 40 DAS. [table] [table] The trial was harvested in January 2021, when the cobs were fully matured. The yield parameters such as number of cobs per plot and cob yield per plot were recorded. The number of cobs per plot was normalized based on plant density per plot. The cobs of each plot were threshed separately and grain weight per plot was recorded and interpreted as Kg per plot normalized to number of plants per plot.

[7] = tested on: finger millet (Eleusine coracana) seedlings; assay: Ragi seedlings treated with LCO: root hairs and root length; assay type: in vivo
Description: FIG. 27 represents a graph showing number of root hairs in seedlings of ragi @ 3 DAS: untreated control (UTC) and treated with LCO.
as §1

Corn [8] = assay: Corn pot study, LCO and urease inhibitor fortified urea and WSF (Example 6); assay type: in vivo; conditions: urea study
Method: NBPT (N-(n-butyl) thiophosphoric triamide) was suspended in propylene glycol (PG) and dimethyl sulphoxide (DMSO) in the ratio of 20:50:30. In the current experiment two different doses of NBPT was fortified to the fertilizers, low dose consisting of 400 ppm and high dose 800 ppm was fortified per Kg of fertilizer.
The fortifying mixture consists of 0.7 ml of LCO (1.90e-5) and 2 ml of NBPT (400 ppm) was fortified to 1 Kg of fertilizer. Whereas another fortifying mixture consists of 0.7 ml of LCO (1.90e-5) and 4 ml of NBPT (800 ppm) was fortified to 1 Kg of fertilizer. After fortification samples were taken for conducting pot trails.
A pot study was conducted for evaluating LCO and Urease inhibitor fortified Urea and WSF on an experimental crop. Corn was selected as a subject crop for the pot study. The experiment consists of 13 treatments as listed below. The pot study is done in pots of 2 Kg soil capacity. The experiment duration is 20 days.
• 1. Untreated Control • 2. WSF • 3. WSF+LCO • 4. WSF+LCO+UI (Low-400 ppm) • 5. […]
From the onset of the experiment plant height and chlorophyll was measured at every 10th, 15th, and 20th day after sowing. Plant height and dry biomass of leaves and root were measured manually using scales, whereas chlorophyll was measured using chlorophyll meter. Leaf area was calculated based on the dry weight method, by developing a dry-weight weight versus leaf area curve for corn leaf samples of known area.
Available nitrogen from the soil was estimated from the soil samples using wet aggregate analysis method of estimation. […] The available nitrogen is expressed as kg/ha.
Total nitrogen as percent was determined from the dried plant samples using Kjeldahl method of estimation. The total nitrogen in plant is expressed as percentage. Nitrogen uptake was calculated by multiplying the shoot biomass with the nutrient concentration. Nitrogen use efficiency (NUE) is determined as the percent of the applied nitrogen that was taken up by the plants.
From the onset of the experiment plant height and chlorophyll was measured every 5 days interval starting from 10th DAS. […]

[9] = tested on: Horse gram (Macrotyloma uniflorum); assay: Horse gram seedlings treated with LCO: root length; assay type: in vivo; conditions: vs control seedlings without LCO, FIG. 28
Description: (§2) FIG. 28 represents a graph showing root length measured @ 10 DAS in beans, horse gram and green gram seedlings: untreated control and treated with LCO.

[10] = tested on: Green gram (Vigna radiata); assay: Green gram seedlings treated with LCO: root length; assay type: in vivo; conditions: vs control seedlings without LCO, FIG. 28
Description: as §2

[11] = tested on: Beans (Phaseolus vulgaris L); assay: Beans seedlings treated with LCO: root length; assay type: in vivo; conditions: vs control seedlings without LCO, FIG. 28
Description: as §2

[12] = at low pH; cited from earlier work

With `CCCCCC/C=C\CCCCCCCCCC(=O)N[C@H]1[C@H](O[C@H]2[C@H](O)[C@@H](NC(C)=O)[C@H](O[C@H]3[C@@H](O)[C@@H](NC(C)=O)[C@H](O[C@H]4[C@H](O)[C@@H](NC(C)=O)[C@H](O[C@H]([C@H](O)[C@H](C=O)NC(C)=O)[C@H](O)CO)O[C@@H]4CO)O[C@@H]3O)O[C@@H]2CO)O[C@H](CO)[C@@H](O)[C@@H]1O` [LCO, Lipo-chitooligosaccharide] the “cabbage circumference, result in words” value (Cabbage [1]; GF fortified with LCO vs control (only GF)) was “marginal increase in circumference of cabbage heads”, the increase in circumference (Cabbage [1]; cabbage, GF 19:19:19 with LCO with or without proxel, average, vs control (only GF)) was 0.4% and the increase in yield (Cabbage [2]; cabbage yield (kg/plot), LCO with or without proxel) was 7%. The increase in circumference (Cabbage [2]; cabbage, WSF 19:19:19 with LCO with or without proxel) was 2%, the “average volume of cabbage heads, result in words” value (Cabbage [3]) was “enhanced average volume of cabbage heads” and the “capsicum yield, result in words” value (Capsicum) was “increase in yield, even though there is no statistically significant difference”. The “increase in cob weight per plot” value (Corn [4]) was no more than 10, the “increase in grain weight per plot” value (Corn [4]) was no more than 9 and the “increase in number of cobs per plant” value (Corn [4]) was no more than 18%. For the same compound, the “root length, result in words” value (Rice (Oryza sativa)) was “increases the length of roots”, the Epicotyl length ([5]; concentration 8.75E−12 %) was 1.75 cm and the Hypocotyl length ([5]; concentration 8.75E−12 %) was 9 cm. The Root length ([5]; concentration 8.75E−12 %) was 12.12 cm, the “Shoot length (hypocotyl + Epicotyl length)” value ([5]; concentration 8.75E−12 %) was 10.77 cm and the Epicotyl length ([5]; concentration 8.75E−14 %) was 1.87 cm. The Hypocotyl length ([5]; concentration 8.75E−14 %) was 8.3 cm, the Root length ([5]; concentration 8.75E−14 %) was 13.41 cm and the “Shoot length (hypocotyl + Epicotyl length)” value ([5]; concentration 8.75E−14 %) was 10.26 cm. For the same compound, the “average number of cobs per plot, result in words” value (Corn [6]) was “enhanced”, the “grain yield per plot, result in words” value (Corn [6]) was “enhanced” and the “number of root hairs, result in words” value ([7]; 3 days after treatment, vs untreated control, FIG. 27) was “increase root hairs”. For the same compound, the “root length, result in words” value ([7]; vs control seedlings without LCO, FIG. 29) was “increases the length of roots”, the “total nitrogen (leaf nitrogen content), result in words” value (Corn [8]; 20 days old corn seedlings, Kjeldahl, FIG. 22) was “much higher than urea+UI at 400 ppm and equal to urea+UI at 800 ppm” and the “leaf dry weight, result in words” value (Corn [8]; corn seedlings, 20 DAS, FIG. 18) was “better than WSF alone”. The “leaf area, result in words” value (Corn [8]; corn seedlings, 20 DAS, FIG. 20) was “better than WSF alone”, the “root length, result in words” value [9] was “increases the length of roots” and the “root length, result in words” value [10] was “increases the length of roots”. For the same compound, the “root length, result in words” value [11] was “increases the length of roots”.
For `CCCCNP(N)(N)=S` [NBPT, N-(n-butyl) thiophosphoric triamide], the “time within which decayed” value [12] is given as no more than 24 h.
